In patent US10792274B2, “Dehydroacetic acid (DHAA) and derivative for uses in treating cancer” (Emory University, priority 2016, dated 2020):
pKd: −log10 of the molar value. “Also recorded” adds a separate entry of the source.

Key:
BRAF V600E [1] = biological target: T1, BRAF V600E (Homo sapiens, UniProt P15056, V600E); assay: thermal melt shift assay, purified recombinant protein; type: binding
Description: Arrows in the panel indicate melting temperatures at 0 μM (left) and 400 μM (right).
(§1) Whether functional inhibition of acetoacetate would attenuate BRAF V600E tumor growth was examined. Dehydroacetic acid (DHAA) (FIG. 4A) is an inhibitory homologue of acetoacetate.

BRAF V600E-MEK1 binding = BRAF V600E-MEK1 binding (Homo sapiens, UniProt P15056, V600E); assay: cell-free in vitro coupled protein-protein binding and kinase assay; type: biochemical; conditions: substance alone
Description: (§2) Whether DHAA inhibits BRAF V600E directly was examined. […] In contrast, DHAA had no effect on BRAF WT-MEK1 binding or MEK1 phosphorylation in a control experiment using purified BRAF WT incubated with MEK1 in the presence of acetoacetate (FIG. 4I left panel). […] This is physiologically consistent with the acetoacetate levels determined as approximately 300 μM in stable HMGCL knockdown A375 and A2058 cells.

[2] = tested on: diverse BRAF V600E positive or negative human melanoma cells; assay: control treatments of melanoma cells; type: cell-based
Description: (§3) To exclude potential effects of the lithium ion, a series of experiments were performed using a control salt lithium chloride.
In addition, similar studies were performed to exclude possible effects from the potential degradation product of acetoacetate, acetone.

[3] = tested on: BRAF V600E-expressing human melanoma A375 cells; assay: A375 xenograft in nude mice; type: in vivo; conditions: for BRAF V600E-MEK1 binding in tumors / cell proliferation rates in tumors (Ki67 IHC staining) / xenograft tumor growth (growth rates, sizes, masses) / phosphorylation of MEK1 and ERK1/2 in tumors: single agent; for xenograft tumor growth (growth rates, sizes, masses): normal diet
[4] = serum and tumor metabolite levels and body weight of xenograft mice; type: in vivo
BRAF V600E [5] = biological target: T1, BRAF V600E; assay: 14C-labeled acetoacetate binding assay (radiometric metabolite-protein interaction)
Description: (§4) BRAF wild type and mutant proteins were incubated with increasing concentrations of ^14C-labeled acetoacetate.
(§5) A series of radiometric metabolite-protein interaction analyses were performed using ^14C labeled acetoacetate incubated with purified BRAF variants in the presence and absence of DHAA.

BRAF V600D = BRAF V600D (Homo sapiens, UniProt P15056, V600D); assay: 14C-labeled acetoacetate binding assay
Description: as §4, §5

BRAF V600R = BRAF V600R (Homo sapiens, UniProt P15056, V600R); assay: 14C-labeled acetoacetate binding assay
Description: as §4, §5

[6] = biological target: T2, V600E mutant of an active, truncated C-terminal domain of BRAF (tBRAF, 416-766 aa) (Homo sapiens, UniProt P15056, V600E); assay: 14C-labeled acetoacetate binding assay
T2 construct: truncated C-terminal domain of BRAF (tBRAF, 416-766 aa)
Description: as §5

[7] = tested on: control V600A mutant or other clinically reported BRAF mutants including K507E, N581S, D594N, L597Q, K601E, and S616F; assay: 14C-labeled acetoacetate binding assay, other BRAF mutants
Description: as §4, §5

FLAG-tagged BRAF V600E = biological target: T3, FLAG-tagged BRAF V600E (Homo sapiens, UniProt P15056, V600E); assay: cellular thermal shift assay, lysates of transfected 293T cells; type: binding; conditions: 400 μM
T3 construct: FLAG; expressed in transfected cells; host or cells: 293T cells (lysates)
Source text: as §1

BRAF V600E [8] = biological target: T1, BRAF V600E; assay: BRAF V600E kinase activity (Vmax and Km), MEK1 as substrate; type: biochemical; conditions: acetoacetate binding; MEK1 as substrate
Description: as §2

BRAF V600D-MEK1 binding = BRAF V600D-MEK1 binding (Homo sapiens, UniProt P15056, V600D); assay: MEK1 binding to BRAF mutants; type: biochemical
BRAF V600R-MEK1 binding = BRAF V600R-MEK1 binding (Homo sapiens, UniProt P15056, V600R); assay: MEK1 binding to BRAF mutants; type: biochemical
[9] = tested on: other BRAF mutants-MEK1 binding; assay: MEK1 binding to BRAF mutants; type: biochemical
[10] = tested on: Me1-ST cells expressing BRAF V600E; assay: immortalized melanocyte treatment: proliferation, MEK-ERK activation, BRAF-MEK1 binding; type: cell-based; conditions: DHAA plus acetoacetate rescue treatment
[11] = tested on: diverse BRAF V600E-expressing cells; assay: DHAA with or without acetoacetate treatment of cells; type: cell-based; conditions: DHAA plus acetoacetate treatment
[12] = tested on: BRAF V600E-expressing human melanoma A2058 cells; assay: A2058 xenograft in nude mice; type: in vivo
Source text: Xenograft tumor growth and in nude mice inoculated with BRAF V600E-positive human melanoma A2058 fed with normal or high-fat diets followed by intraperitoneal injection with DHAA.

[13] = tested on: NRAS Q61K-expressing HMCB cells; assay: HMCB xenograft in nude mice; type: in vivo; conditions: for BRAF-MEK1 binding in tumors / cell proliferation rates in tumors (Ki67 IHC staining) / phosphorylation of MEK1 and ERK1/2 (MEK-ERK activation) in tumors / xenograft tumor growth (growth rates, sizes, masses): single agent; for xenograft tumor growth (growth rates, sizes, masses): normal diet
[14] = chronic injection of acetoacetate or 3HB to nude mice; type: in vivo; conditions: chronic injection for 4 weeks
[15] = type: physicochemical
Description: as §3

[16] = increasing concentrations of 14C-labeled acetoacetate
[17] = DHAA plus intraperitoneal acetoacetate
[18] = acetoacetate injection in mice treated with fluvastatin, niacin or fenofibrate

T1 sequence (P15056 whole entry V600E): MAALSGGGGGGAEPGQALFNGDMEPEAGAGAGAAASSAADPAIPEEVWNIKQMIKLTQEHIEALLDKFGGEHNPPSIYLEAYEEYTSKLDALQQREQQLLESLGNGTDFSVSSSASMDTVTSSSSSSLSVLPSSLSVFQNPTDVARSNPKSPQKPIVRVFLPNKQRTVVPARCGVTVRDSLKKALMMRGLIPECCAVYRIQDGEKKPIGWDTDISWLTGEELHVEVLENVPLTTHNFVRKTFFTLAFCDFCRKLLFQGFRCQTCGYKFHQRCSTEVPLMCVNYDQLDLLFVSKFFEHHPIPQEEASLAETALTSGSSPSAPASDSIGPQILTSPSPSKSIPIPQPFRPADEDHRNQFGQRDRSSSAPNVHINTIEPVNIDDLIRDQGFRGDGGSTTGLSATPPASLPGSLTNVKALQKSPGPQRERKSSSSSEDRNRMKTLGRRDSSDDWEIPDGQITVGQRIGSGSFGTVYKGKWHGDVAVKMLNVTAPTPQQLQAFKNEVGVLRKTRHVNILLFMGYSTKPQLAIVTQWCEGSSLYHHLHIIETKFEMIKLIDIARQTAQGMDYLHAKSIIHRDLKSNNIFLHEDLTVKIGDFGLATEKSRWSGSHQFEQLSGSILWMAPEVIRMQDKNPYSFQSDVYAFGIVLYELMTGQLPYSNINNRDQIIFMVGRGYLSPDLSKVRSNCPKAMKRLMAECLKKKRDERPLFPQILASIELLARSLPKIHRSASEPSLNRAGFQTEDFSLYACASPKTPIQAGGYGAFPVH
BRAF V600E-MEK1 binding, sequence (P15056 whole entry V600E): as above
BRAF V600R, sequence (P15056 whole entry V600R): as the sequence (P15056 whole entry V600E) above, with E600R counted along it
BRAF V600D, sequence (P15056 whole entry V600D): as the sequence (P15056 whole entry V600E) above, with E600D counted along it
T3 sequence (P15056 whole entry V600E): as the sequence (P15056 whole entry V600E) above
BRAF V600R-MEK1 binding, sequence (P15056 whole entry V600R): as the sequence (P15056 whole entry V600E) above, with E600R counted along it
BRAF V600R-MEK1 binding, sequence (Q02750 whole entry partner): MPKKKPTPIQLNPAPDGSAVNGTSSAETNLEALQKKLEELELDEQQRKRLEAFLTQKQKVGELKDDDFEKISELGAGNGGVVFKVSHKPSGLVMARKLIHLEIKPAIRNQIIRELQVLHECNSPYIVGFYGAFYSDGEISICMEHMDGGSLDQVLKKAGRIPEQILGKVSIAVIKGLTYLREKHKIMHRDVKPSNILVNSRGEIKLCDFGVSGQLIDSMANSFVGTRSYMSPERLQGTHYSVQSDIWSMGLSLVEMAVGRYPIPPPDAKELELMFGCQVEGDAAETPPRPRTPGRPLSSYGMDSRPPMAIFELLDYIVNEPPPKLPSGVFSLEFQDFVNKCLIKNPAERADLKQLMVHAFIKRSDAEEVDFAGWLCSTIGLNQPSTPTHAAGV
T2 sequence (P15056 416-766 V600E): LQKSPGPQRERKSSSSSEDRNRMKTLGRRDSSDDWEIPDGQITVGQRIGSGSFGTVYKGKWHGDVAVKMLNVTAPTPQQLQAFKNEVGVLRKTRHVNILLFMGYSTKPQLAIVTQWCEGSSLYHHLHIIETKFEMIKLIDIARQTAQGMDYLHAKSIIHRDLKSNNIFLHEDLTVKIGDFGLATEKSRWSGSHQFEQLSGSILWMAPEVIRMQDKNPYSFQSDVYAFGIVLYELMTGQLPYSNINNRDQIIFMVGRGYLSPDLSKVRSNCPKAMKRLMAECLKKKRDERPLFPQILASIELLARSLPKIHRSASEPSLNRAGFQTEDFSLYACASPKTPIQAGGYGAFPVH
BRAF V600D-MEK1 binding, sequence (P15056 whole entry V600D): as the sequence (P15056 whole entry V600E) above, with E600D counted along it
BRAF V600D-MEK1 binding, sequence (Q02750 whole entry partner): as the sequence (Q02750 whole entry partner) above

Compound: [Cl-].[Li+] [lithium chloride]
- binding in thermal melt shift assay (BRAF V600E [1]): did not bind
- promotion of association between purified BRAF V600E and MEK1 (BRAF V600E-MEK1 binding): did not
- BRAF V600E-MEK1 binding [2]: did not affect
- cell proliferation rates [2]: did not affect
- phosphorylation levels of MEK1 or ERK1/2 [2]: did not affect
- BRAF V600E-MEK1 binding in tumors [3]: nor did it affect
- cell proliferation rates in tumors (Ki67 IHC staining) [3]: nor did it affect
- xenograft tumor growth (growth rates, sizes, masses) [3]: did not affect tumor growth potential
- serum cholesterol levels ([4]; effect of treatment): nor did it affect
- serum levels of 3HB (β-hydroxybutyrate) ([4]; effect of treatment): nor did it affect

Compound: CC(=O)CC(=O)O [acetoacetate]
- pKd (BRAF V600E [5]; [16]): ~4.04
- binding of 14C-labeled acetoacetate (BRAF V600E [5]; purified BRAF V600E): binds to purified BRAF V600E; also recorded: specifically bound
- binding of 14C-labeled acetoacetate (BRAF V600D): bound
- pKd (BRAF V600D; [16]): ~4.03
- binding of 14C-labeled acetoacetate (BRAF V600R): bound
- pKd (BRAF V600R; [16]): ~3.95
- binding of 14C-labeled acetoacetate [6]: specifically bound
- binding of 14C-labeled acetoacetate [7]: but not to a negative control mutant V600A or to other clinically reported BRAF mutants
- binding in cellular thermal shift assay (FLAG-tagged BRAF V600E): bound only to BRAF V600E
- Km of BRAF V600E (BRAF V600E [8]): slightly decreased Km
- Vmax of BRAF V600E (BRAF V600E [8]): increased Vmax
- promotion of association between purified BRAF V600E and MEK1 (BRAF V600E-MEK1 binding): promoted MEK1 binding
- promotion of MEK1 binding to BRAF V600D with increased MEK1 phosphorylation (BRAF V600D-MEK1 binding): promoted MEK1 binding
- promotion of MEK1 binding to BRAF V600R with increased MEK1 phosphorylation (BRAF V600R-MEK1 binding): promoted MEK1 binding
- promotion of MEK1 binding to other BRAF mutants [9]: but not to other BRAF mutants
- reversal by acetoacetate of the inhibitory effect of DHAA on cell proliferation [10]: did not reverse
- reversal by acetoacetate of DHAA-decreased MEK-ERK activation [11]: could not be reversed
- reversal by acetoacetate of DHAA-reduced cell proliferation [11]: could not be reversed
- reversal by acetoacetate injection of DHAA inhibition of BRAF V600E-MEK1 binding in tumors [3, 17]: did not reverse
- reversal by acetoacetate injection of DHAA inhibition of MEK1 and ERK1/2 phosphorylation in tumors [3, 17]: did not reverse
- reversal by acetoacetate injection of DHAA inhibition of cell proliferation rates (Ki67) in tumors [3, 17]: did not reverse
- reversal by acetoacetate injection of fluvastatin- or niacin-attenuated tumor growth ([3]; intraperitoneal acetoacetate plus oral fluvastatin or niacin): could be reversed
- BRAF V600E-MEK1 binding in tumors [3]: enhanced BRAF V600E-MEK1 association
- cell proliferation rates in tumors (Ki67 IHC staining) [3]: enhanced cell proliferation rates
- phosphorylation of MEK1 and ERK1/2 in tumors [3]: enhanced phosphorylation of MEK1 and ERK1/2
- xenograft tumor growth (growth rates, sizes, masses) [3]: increased growth rates and masses of xenograft tumors; also recorded: increased tumor sizes; also recorded: selectively promotes
- reversal by acetoacetate injection of hypolipidemic agents' inhibitory effects (MEK1/ERK1/2 phosphorylation, BRAF V600E-MEK1 association, Ki67) ([3]; tumors): effectively reversed
- rescue by acetoacetate injection of fenofibrate-decreased tumor growth ([12]; intraperitoneal acetoacetate plus fenofibrate): effectively rescued the decreased tumor growth
- reversal by acetoacetate injection of hypolipidemic agents' inhibitory effects (MEK1/ERK1/2 phosphorylation, BRAF V600E-MEK1 association, Ki67) ([12]; tumors): effectively reversed
- effect of acetoacetate injection on tumor growth potential ([13]; intraperitoneal acetoacetate, fenofibrate study): had no effect on tumor growth potential
- BRAF-MEK1 binding in tumors [13]: did not affect
- cell proliferation rates in tumors (Ki67 IHC staining) [13]: did not affect
- phosphorylation of MEK1 and ERK1/2 (MEK-ERK activation) in tumors [13]: did not affect
- xenograft tumor growth (growth rates, sizes, masses) [13]: had no effect on growth rates or masses of tumor xenografts
- serum levels of acetoacetate ([4]; acetoacetate injection in DHAA-treated A375 xenograft mice): increased serum levels of acetoacetate
- serum 3HB levels [4, 18]: did not affect 3HB levels
- serum acetoacetate levels [4, 18]: rescued the decreased serum acetoacetate levels
- serum levels of 3HB (β-hydroxybutyrate) ([4]; effect of treatment): did not affect serum levels of 3HB
- serum levels of acetoacetate ([4]; effect of treatment): increased serum levels of acetoacetate
- acetoacetate or 3HB levels in urine [14]: did not alter
- serum acetoacetate levels [14]: increased serum acetoacetate
- stability of anion form relative to acid form [15]: approximately 55 times

Compound: O=C(O)c1cccnc1 [niacin]
- BRAF V600E-MEK1 binding in tumors [3]: decreased BRAF V600E-MEK1 association
- cell proliferation rates in tumors (Ki67 IHC staining) [3]: reduced cell proliferation rates
- phosphorylation of MEK1 and ERK1/2 in tumors [3]: decreased phosphorylation of MEK1 and ERK1/2
- xenograft tumor growth (growth rates, sizes, masses) [3]: effectively attenuated tumor growth potential; also recorded: reduce BRAF V600E tumor growth
- serum cholesterol levels ([4]; effect of treatment): marginally decreased serum cholesterol levels
- serum levels of acetoacetate ([4]; effect of treatment): reduced serum levels of acetoacetate; also recorded: decrease serum acetoacetate levels

Compound: CC(C)=O [acetone]
- binding in thermal melt shift assay (BRAF V600E [1]): did not bind
- promotion of association between purified BRAF V600E and MEK1 (BRAF V600E-MEK1 binding): did not
- BRAF V600E-MEK1 binding [2]: did not affect
- cell proliferation rates [2]: did not affect
- phosphorylation levels of MEK1 or ERK1/2 [2]: did not affect

Compound: C[C@@H](O)CC(=O)O [3HB, D-β-hydroxybutyrate]
- BRAF-MEK1 binding in tumors [13]: did not affect
- cell proliferation rates in tumors (Ki67 IHC staining) [13]: did not affect
- phosphorylation of MEK1 and ERK1/2 (MEK-ERK activation) in tumors [13]: did not affect
- xenograft tumor growth (growth rates, sizes, masses) [13]: had no effect on growth rates or masses of tumor xenografts
- serum levels of 3HB (β-hydroxybutyrate) ([4]; effect of treatment): increased serum levels of β-hydroxybutyrate
- acetoacetate or 3HB levels in urine [14]: did not alter
- serum 3HB levels [14]: increased 3HB
